In patent US20240383901A1, “SUBSTITUTED PYRROLO[2,3-D]PYRIMIDINES, THEIR PREPARATION AND THEIR THERAPEUTIC APPLICATION” (SANOFI, priority 2021, published 2024):
pIC50: −log10 of the molar value.

Legend:
full-length LRRK2 G2019S = molecular target: T1, full-length LRRK2 G2019S (Homo sapiens, UniProt Q5S007, G2019S); assay: LRRK2-G2019S kinase activity assay (Lanthascreen TR-FRET); type: biochemical; details: 1.1 mM ATP
T1 construct: DYKDDDDK (FLAG)
Protocol: (§1) The potency of compounds was evaluated in vitro using the Lanthascreen® technology (ThermoFisher Scientific).
(§2) In a typical experiment, the reaction assay buffer contains 50 mM Tris pH8.2, 1 mM EGTA, 2.5 mM MgCl2, 0.05% Triton X100, 0.15% BSA and 1 mM DTT. The detection of the assay is performed using 1 nM Terbium labeled anti-phospho-LRRKtide (ThermoFisher Scientific) diluted in a TR-FRET buffer (ThermoFisher Scientific).
(§3) The experimental procedure was performed with Greiner small volume® 384-well. […] The working solution of compounds was prepared in a separate Greiner microplate.
(§4) The kinase reaction was initiated by addition of the ATP/LRRKtide substrate mix diluted in the reaction assay buffer. The reaction mix was incubated for at least 10 minutes at room temperature (initial velocity conditions). Reaction was stopped by addition of Terbium labeled anti-phospho-LRRKtide diluted into the detection buffer supplemented with EDTA (ThermoFisher Scientific). Plates are incubated for at least 30 minutes at room temperature and read on an Envision™ multimode plate reader (PerkinElmer) with LanthaScreen™. The TR-FRET 520:495 nm emission ratio was calculated and used to determine the IC50 value from a dose response curve fit to the 4-parameter logistic equation. The activity with respect to LRRK2 kinase in this test is given by the concentration which inhibits 50% of the LRRK2 activity (or IC50) in nM.

[1] = molecular target: T2, full-length LRRK2 wild type (Homo sapiens, UniProt Q5S007); assay: LRRK2 WT assay (Assay A, Lanthascreen TR-FRET, 500 uM ATP); type: biochemical; details: Assay A (values without *)
T2 construct: DYDDDDK tagged full-length LRRK2 wild type is used
T2 sequence (Q5S007 whole entry): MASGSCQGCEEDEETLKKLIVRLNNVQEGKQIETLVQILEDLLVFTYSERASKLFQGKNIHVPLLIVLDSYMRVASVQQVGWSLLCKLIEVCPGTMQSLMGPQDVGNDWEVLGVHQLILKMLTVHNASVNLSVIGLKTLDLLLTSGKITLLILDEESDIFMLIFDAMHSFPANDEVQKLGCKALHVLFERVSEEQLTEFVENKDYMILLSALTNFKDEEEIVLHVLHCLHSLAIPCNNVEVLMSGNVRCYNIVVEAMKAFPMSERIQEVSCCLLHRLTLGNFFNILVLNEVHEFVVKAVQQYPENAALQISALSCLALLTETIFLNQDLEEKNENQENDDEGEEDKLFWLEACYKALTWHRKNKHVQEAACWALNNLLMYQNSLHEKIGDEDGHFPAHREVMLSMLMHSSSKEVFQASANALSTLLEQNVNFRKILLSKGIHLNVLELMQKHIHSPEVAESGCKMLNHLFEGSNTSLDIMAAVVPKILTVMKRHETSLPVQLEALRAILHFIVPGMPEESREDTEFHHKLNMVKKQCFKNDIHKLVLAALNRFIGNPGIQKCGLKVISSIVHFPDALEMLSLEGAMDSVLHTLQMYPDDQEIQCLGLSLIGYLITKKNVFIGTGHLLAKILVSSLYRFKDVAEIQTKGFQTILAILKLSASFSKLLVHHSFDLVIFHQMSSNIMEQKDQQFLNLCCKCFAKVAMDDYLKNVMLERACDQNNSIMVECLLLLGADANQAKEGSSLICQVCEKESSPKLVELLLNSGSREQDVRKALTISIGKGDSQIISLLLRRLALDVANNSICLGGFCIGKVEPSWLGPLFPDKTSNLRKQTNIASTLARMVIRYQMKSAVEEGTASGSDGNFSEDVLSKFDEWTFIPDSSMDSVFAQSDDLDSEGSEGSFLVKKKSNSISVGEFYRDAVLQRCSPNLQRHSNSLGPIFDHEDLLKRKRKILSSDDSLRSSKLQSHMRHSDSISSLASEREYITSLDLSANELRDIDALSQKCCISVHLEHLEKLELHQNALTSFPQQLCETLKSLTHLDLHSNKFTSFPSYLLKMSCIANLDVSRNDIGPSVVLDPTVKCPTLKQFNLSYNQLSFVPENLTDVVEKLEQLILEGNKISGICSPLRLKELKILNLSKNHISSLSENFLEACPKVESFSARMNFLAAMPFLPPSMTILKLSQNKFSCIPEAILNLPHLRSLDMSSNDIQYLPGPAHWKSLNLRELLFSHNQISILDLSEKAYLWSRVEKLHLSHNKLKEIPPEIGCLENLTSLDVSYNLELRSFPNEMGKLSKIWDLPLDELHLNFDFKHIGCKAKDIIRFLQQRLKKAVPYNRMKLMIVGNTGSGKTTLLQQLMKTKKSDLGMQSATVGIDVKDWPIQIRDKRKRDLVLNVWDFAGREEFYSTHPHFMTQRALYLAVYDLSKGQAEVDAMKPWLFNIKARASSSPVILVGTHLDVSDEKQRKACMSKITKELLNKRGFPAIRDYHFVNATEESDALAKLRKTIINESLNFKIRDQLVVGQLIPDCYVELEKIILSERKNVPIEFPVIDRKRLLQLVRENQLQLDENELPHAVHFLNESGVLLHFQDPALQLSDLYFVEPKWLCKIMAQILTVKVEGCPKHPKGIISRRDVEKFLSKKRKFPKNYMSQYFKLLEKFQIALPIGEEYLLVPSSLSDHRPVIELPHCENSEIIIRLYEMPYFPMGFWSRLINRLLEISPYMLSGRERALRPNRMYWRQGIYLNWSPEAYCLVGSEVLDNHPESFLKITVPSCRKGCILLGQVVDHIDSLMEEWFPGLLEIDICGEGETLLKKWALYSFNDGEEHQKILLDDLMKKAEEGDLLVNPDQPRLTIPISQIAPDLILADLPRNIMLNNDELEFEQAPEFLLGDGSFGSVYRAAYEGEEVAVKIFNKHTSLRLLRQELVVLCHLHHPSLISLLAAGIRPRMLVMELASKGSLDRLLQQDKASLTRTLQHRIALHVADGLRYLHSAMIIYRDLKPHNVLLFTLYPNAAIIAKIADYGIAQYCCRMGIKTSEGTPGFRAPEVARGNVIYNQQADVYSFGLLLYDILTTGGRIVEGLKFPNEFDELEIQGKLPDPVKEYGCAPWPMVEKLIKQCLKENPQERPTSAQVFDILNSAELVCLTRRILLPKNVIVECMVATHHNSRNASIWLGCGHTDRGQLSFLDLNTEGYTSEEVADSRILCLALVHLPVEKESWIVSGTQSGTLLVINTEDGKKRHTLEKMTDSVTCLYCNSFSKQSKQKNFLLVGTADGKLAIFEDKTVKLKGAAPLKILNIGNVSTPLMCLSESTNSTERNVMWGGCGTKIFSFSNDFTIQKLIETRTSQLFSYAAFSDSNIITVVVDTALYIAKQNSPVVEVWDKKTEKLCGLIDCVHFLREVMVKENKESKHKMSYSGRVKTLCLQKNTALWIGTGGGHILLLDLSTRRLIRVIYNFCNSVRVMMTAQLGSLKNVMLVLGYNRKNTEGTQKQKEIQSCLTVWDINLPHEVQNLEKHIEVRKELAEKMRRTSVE
Protocol: as §1, §2, §3, §4

T1 sequence (Q5S007 whole entry G2019S): as the sequence (Q5S007 whole entry) above, with G2019S counted along it

SMILES | pIC50 (full-length LRRK2 G2019S) | pIC50 [1]
C[C@H]1COC[C@@H]1n1c(C#N)cc2cnc(Nc3ccc(C(C)(C)O)cc3OC3COC3)nc21 [Example 20, 2-((4-(2-Hydroxypropan-2-yl)-2-(oxetan-3-yloxy)phenyl)amino)-7-((3R,4R)-4-methyltetrahydrofuran-3-yl)-7H-pyrrolo[2,3-d]pyrimidine-6-carbonitrile] | 8.52 | 8.52
[2H]C([2H])([2H])n1cc(Nc2ncc3cc(C#N)n(C4COCC4C)c3n2)c(OC2CCC2(C)O)n1 (single isomer, unassigned) [Example 141] | 7.27 | 7.36
CO[C@@H]1COC[C@H]1n1c(C#N)cc2cnc(Nc3ccc(C(C)(C)O)cc3OC3COC3)nc21 (racemic) [Example 71, 2-((4-(2-hydroxypropan-2-yl)-2-(oxetan-3-yloxy)phenyl)amino)-7-((trans)-4-methoxytetrahydrofuran-3-yl)-7H-pyrrolo[2,3-d]pyrimidine-6-carbonitrile] | 7.16 | 6.96
CC(C)Oc1nn(C)cc1Nc1ncc2cc(C#N)n([C@H]3COC[C@@H]3C)c2n1 [Example 26, 2-((3-Isopropoxy-1-methyl-1H-pyrazol-4-yl)amino)-7-((3R,4R)-4-methyltetrahydrofuran-3-yl)-7H-pyrrolo[2,3-d]pyrimidine-6-carbonitrile] | 9.00 | 9.00
C[C@@H]1COC[C@H]1Oc1nn(C)cc1Nc1ncc2cc(C#N)n([C@H]3COC[C@@H]3C)c2n1 (single isomer, unassigned) [Example 2] | 8.30 | 8.30
[2H]C([2H])([2H])n1cc(Nc2ncc3cc(C#N)n([C@H]4COC[C@@H]4C)c3n2)c(OC(C)C)n1 [Example 42, 2-((3-Isopropoxy-1-(methyl-d3)-1H-pyrazol-4-yl)amino)-7-((3R,4R)-4-methyltetrahydrofuran-3-yl)-7H-pyrrolo[2,3-d]pyrimidine-6-carbonitrile] | 8.70 | 9.00
CC(C(F)F)n1cc(Nc2ncc3cc(C#N)n([C@H]4COC[C@@H]4C)c3n2)c(OC2CC2)n1 (mixture of isomers) [Example 43, 2-((3-cyclopropoxy-1-(1,1-difluoropropan-2-yl)-1H-pyrazol-4-yl)amino)-7-((3R,4R)-4-methyltetrahydrofuran-3-yl)-7H-pyrrolo[2,3-d]pyrimidine-6-carbonitrile] | 9.00 | 8.70
[2H]C([2H])([2H])n1cc(Nc2ncc3cc(C#N)n([C@@H](C)COC)c3n2)c(OC2CCOC2)n1 (single isomer, unassigned) [Example 102] | 7.39 | 7.41
[2H]C([2H])([2H])n1cc(Nc2ncc3cc(C#N)n([C@H]4COC[C@@H]4C)c3n2)c(OC2COC2(C)C)n1 (single isomer, unassigned) [Example 118] | 7.54 | 7.85
CC(C)Oc1nn(CC(F)(F)F)cc1Nc1ncc2cc(C#N)n([C@H]3COC[C@@H]3C)c2n1 [Example 25, 2-((3-Isopropoxy-1-(2,2,2-trifluoroethyl)-1H-pyrazol-4-yl)amino)-7-((3R,4R)-4-methyltetrahydrofuran-3-yl)-7H-pyrrolo[2,3-d]pyrimidine-6-carbonitrile] | 9.00 | 9.00
COCC(C)n1c(C#N)cc2cnc(Nc3cn(C4CCC(C)(O)CC4)nc3OC(C)C)nc21 [Example 104, cis-2-((1-(4-hydroxy-4-methylcyclohexyl)-3-isopropoxy-1H-pyrazol-4-yl)amino)-7-((S)-1-methoxypropan-2-yl)-7H-pyrrolo[2,3-d]pyrimidine-6-carbonitrile] | 7.38 | 7.36
[2H]C([2H])([2H])n1cc(Nc2ncc3cc(C#N)n([C@@H](C)COC)c3n2)c(OC2C(C)(C)C(O)C2(C)C)n1 (single isomer, unassigned) [Example 133] | 7.85 | 7.89
COCC(C)n1c(C#N)cc2cnc(Nc3cn(C4CCC(C)(O)CC4)nc3OC3CC3)nc21 [Example 106, cis-2-((3-cyclopropoxy-1-(4-hydroxy-4-methylcyclohexyl)-1H-pyrazol-4-yl)amino)-7-((S)-1-methoxypropan-2-yl)-7H-pyrrolo[2,3-d]pyrimidine-6-carbonitrile] | 7.26 | 7.15
[2H]C([2H])([2H])n1cc(Nc2ncc3cc(C#N)n([C@@H](C)COC)c3n2)c(OC2CC(O)C2(C)C)n1 (stereo partly drawn) [Example 108, 2-((3-(3-hydroxy-2,2-dimethylcyclobutoxy)-1-(methyl-d3)-1H-pyrazol-4-yl)amino)-7-((S)-1-methoxypropan-2-yl)-7H-pyrrolo[2,3-d]pyrimidine-6-carbonitrile] | 8.00 | 8.00
COC[C@H](C)n1c(C#N)cc2cnc(Nc3ccc(C(C)(C)O)cc3OC3CC3)nc21 [Example 154, (S)-2-((2-cyclopropoxy-4-(2-hydroxypropan-2-yl)phenyl)amino)-7-(1-methoxypropan-2-yl)-7H-pyrrolo[2,3-d]pyrimidine-6-carbonitrile] | 9.00 | 8.70
CC(C(F)F)n1cc(Nc2ncc3cc(C#N)n([C@H]4COC[C@@H]4C)c3n2)c(OC2COC2)n1 (single isomer, unassigned) [Example 5] | 8.30 | 8.40
CO[C@H]1COC[C@H]1n1c(C#N)cc2cnc(Nc3cn(C(C)C#N)nc3OC(C)C)nc21 (single isomer, unassigned) [Example 56] | 8.40 | 8.15
C[C@H]1COC[C@@H]1n1c(C#N)cc2cnc(Nc3cn(CS(C)(=O)=O)nc3OC3COC3)nc21 [Example 14, 2-[[1-(Methylsulfonylmethyl)-3-(oxetan-3-yloxy)pyrazol-4-yl]amino]-7-[(3R,4R)-4-methyltetrahydrofuran-3-yl]pyrrolo[2,3-d]pyrimidine-6-carbonitrile] | 8.70 | 8.70
CC(C)Oc1nn(C)cc1Nc1ncc2cc(C#N)n([C@@H]3COC[C@@H]3C)c2n1 (racemic) [Example 47, 2-((3-isopropoxy-1-methyl-1 H-pyrazol-4-yl)amino)-7-((cis)-4-methyltetrahydrofuran-3-yl)-7H-pyrrolo[2,3-d]pyrimidine-6-carbonitrile] | 7.51 | 7.44
[2H]C([2H])([2H])n1cc(Nc2ncc3cc(C#N)n([C@H]4COC[C@@H]4C)c3n2)c(OC2COC2(C)C)n1 (single isomer, unassigned) [Example 119] | 7.77 | 7.92
COC[C@H](C)n1c(C#N)cc2cnc(Nc3cn(CCO)nc3OC3CCOCC3)nc21 [Example 138, (S)-2-((1-(2-hydroxyethyl)-3-((tetrahydro-2H-pyran-4-yl)oxy)-1 H-pyrazol-4-yl)amino)-7-(1-methoxypropan-2-yl)-7H-pyrrolo[2,3-d]pyrimidine-6-carbonitrile] | 7.96 | 7.96
COC[C@H](C)n1c(C#N)cc2cnc(Nc3cn(CS(C)(=O)=O)nc3OC3COC3)nc21 [Example 93, 7-[(1S)-2-Methoxy-1-methyl-ethyl]-2-[[1-(methylsulfonylmethyl)-3-(oxetan-3-yloxy)pyrazol-4-yl]amino]pyrrolo[2,3-d]pyrimidine-6-carbonitrile] | 8.40 | 8.10
COCC(C)n1cc(Nc2ncc3cc(C#N)n([C@@H](C)COC)c3n2)c(OC2COC2)n1 (single isomer, unassigned) [Example 130] | 7.24 | 7.21
CO[C@H]1COC[C@H]1n1c(C#N)cc2cnc(Nc3cn(C4COC4)nc3OC(C)C(F)(F)F)nc21 (mixture of isomers) [Example 54, 7-((3R,4R)-4-Methoxytetrahydrofuran-3-yl)-2-((1-(oxetan-3-yl)-3-((1,1,1-trifluoropropan-2-yl)oxy)-1 H-pyrazol-4-yl)amino)-7H-pyrrolo[2,3-d]pyrimidine-6-carbonitrile] | 7.57 | 7.21
[2H]C([2H])([2H])n1cc(Nc2ncc3cc(C#N)n([C@@H](C)COC)c3n2)c(O[C@@H]2COC[C@H]2O)n1 (single isomer, unassigned) [Example 117] | 7.30 | 7.47
C[C@H]1COC[C@@H]1n1c(C#N)cc2cnc(Nc3cn(C)nc3OC3COC3)nc21 [Example 8, 2-[[1-methyl-3-(oxetan-3-yloxy)pyrazol-4-yl]amino]-7-[(3R,4R)-4-methyltetrahydrofuran-3-yl]pyrrolo[2,3-d]pyrimidine-6-carbonitrile] | 8.40 | 8.22
[2H]C([2H])([2H])n1cc(Nc2ncc3cc(C#N)n([C@@H](C)COC)c3n2)c(OC2CC(O)C2(C)C)n1 (single isomer, unassigned) [Example 134] | 8.30 | 8.52
[2H]C([2H])([2H])n1cc(Nc2ncc3cc(C#N)n([C@@H](C)COC)c3n2)c(OC2CC(O)C2(C)C)n1 (single isomer, unassigned) [Example 135] | 7.41 | 7.37
[2H]C([2H])([2H])n1cc(Nc2ncc3cc(C#N)n([C@@H](C)COC)c3n2)c(OC2CCOC2)n1 (single isomer, unassigned) [Example 101] | 7.47 | 7.40
